Experimental data as given in patent publication US20210345656A1, “HIGH NICOTINE ABSORPTION” (Fertin Pharma A/S, priority 2017, published 2021).

Conditions: nicotine concentration increased from 100 microgram/mL to 14,000 microgram/mL

CN1CCCC1c1cccnc1 (stereo not shown) [nicotine]
Change of permeability of nicotine across the buccal mucosa: decrease of about a factor of two
